This is an account of results in ChEMBL document CHEMBL1201862, “PubChem BioAssay data set” (2004).

Each structure is given as a SMILES string.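 1) Cells in 96-well plates. 2) Compound, 48 h, 5 concentrations. 3) Linear interpolation between surrounding doses. 4) Unreached endpoint = highest concentration. GI50 marks 50% less growth.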 Calls of active or inactive are those of the source. No stated cut-off is given here; in the data, active = GI50 up to about 1.1 µM and inactive = higher.

Test in all cases: growth of human tumour cells (NCI), 48 h
Experiment [1] deals with 786-0.
The test system of experiment [2] is A498.
Experiment [3] concerns CCRF-CEM.
For experiment [4], the system named is DU-145.
Experiment [5] relates to HCT-116.
For experiment [6], the system named is HT-29.
Experiment [7] relates to Hs-578T.
The subject of experiment [8] is IGROV-1.
Experiment [9] has as its system KM12.
The test system of experiment [10] is M14.
Experiment [11] relates to MCF7.
In experiment [12] the test system is MDA-MB-231.
The test system of experiment [13] is NCI-H226.
The subject of experiment [14] is OVCAR-4.
In experiment [15] the test system is SF-295.
The test system of experiment [16] is SF-539.
For experiment [17], the system named is SK-MEL-28.
Experiment [18] has as its system SK-MEL-5.
In experiment [19] the test system is UACC-257.
The test system of experiment [20] is SK-MEL-2.

On to `Cc1cn(C2CC(O)C(COC(=O)NCCC(F)(F)C(F)(F)C(F)(F)C(F)(F)F)O2)c(=O)[nH]c1=O` (stereo not given), for which the GI50 in experiment [1] was > 100 µM (inactive); in [2], > 100 µM (inactive); in [3], > 100 µM (inactive); in experiment [4], > 100 µM (inactive); in [5], 88.5 µM (inactive); in experiment [6], > 100 µM (inactive). The GI50 is 80.5 µM (inactive) in [7]; > 100 µM (inactive) in [8]; > 100 µM (inactive) in [9]; > 100 µM (inactive) in experiment [10]; > 100 µM (inactive) in experiment [11]; > 100 µM (inactive) in [12]. Also, the GI50 in [13], in experiment [14], in experiment [15], in experiment [16], in experiment [17] and in experiment [18] was > 100 µM (inactive) each time. In experiment [19], the GI50 is > 100 µM (inactive).

As for `COc1cc(C(=O)C2C(=O)c3ccccc3C2C2(O)c3ccccc3CC2C(O)c2cc(OC)c(OC)c(OC)c2)cc(OC)c1OC` (stereo not given), the GI50 in experiment [1], in experiment [2], in [4], in [5], in experiment [6] and in [7] was > 100 µM (inactive) each time. Besides, the GI50 in experiment [8] was > 100 µM (inactive); in experiment [9] it was > 100 µM (inactive); in experiment [10], > 100 µM (inactive); in experiment [11] it was > 100 µM (inactive); in experiment [12] it was 94.2 µM (inactive); in [13] it was > 100 µM (inactive). Besides, the GI50 in experiment [14] was > 100 µM (inactive); in experiment [15], 74.6 µM (inactive); in experiment [16] it was 37.2 µM (inactive); in [17] it was > 100 µM (inactive); in experiment [20], > 100 µM (inactive); in experiment [18] it was > 100 µM (inactive). The GI50 in experiment [19] was > 100 µM (inactive).

For the compound `Nc1ccc(-c2ncc3cc(-c4cccc(-c5cc6cnc(-c7ccc(N)cc7)nc6c6ccccc56)c4)c4ccccc4c3n2)cc1`, the GI50 in experiment [1], in [2], in experiment [3], in experiment [4], in experiment [5] and in experiment [6] was > 100 µM (inactive) each time. In addition, the GI50 in experiment [7] is > 100 µM (inactive); in experiment [8] it was > 100 µM (inactive); in experiment [9] it was > 100 µM (inactive); in experiment [10] it was 60.1 µM (inactive); in experiment [11], > 100 µM (inactive); in [12], > 100 µM (inactive). Moreover, the GI50 in experiment [13] was > 100 µM (inactive); in experiment [15], > 100 µM (inactive); in experiment [16], > 100 µM (inactive); in experiment [17], > 100 µM (inactive); in experiment [20], > 100 µM (inactive); in experiment [18] it was 34.5 µM (inactive). Moreover, in experiment [19], the GI50 is > 100 µM (inactive).

For the compound `N#Cc1cnn2ccn(C3OC(COC(=O)c4ccccc4)C(OC(=O)c4ccccc4)C3OC(=O)c3ccccc3)c12` (stereo not given), the GI50 was > 21.5 µM (inactive) in experiment [1]; 20.5 µM (inactive) in experiment [2]; > 21.5 µM (inactive) in experiment [3]; > 21.5 µM (inactive) in experiment [4]; > 21.5 µM (inactive) in experiment [5]; > 21.5 µM (inactive) in [6]. Further, the GI50 was 13.2 µM (inactive) in experiment [7]; > 21.5 µM (inactive) in experiment [8]; 17.3 µM (inactive) in [9]; > 21.5 µM (inactive) in experiment [10]; > 46.5 µM (inactive) in experiment [11]; > 21.5 µM (inactive) in experiment [12]. Moreover, the GI50 in [13], in experiment [14], in [15], in experiment [16], in [17] and in experiment [18] was > 21.5 µM (inactive) each time. The GI50 in experiment [19] is > 21.5 µM (inactive).

As to `O=C1c2ccccc2-c2ccc(O)cc21`, the GI50 in experiment [1] is 36.1 µM (inactive); in experiment [2], 21.5 µM (inactive); in experiment [4], 20.1 µM (inactive); in experiment [5] it was 45.6 µM (inactive); in experiment [6] it was 30.7 µM (inactive); in experiment [7] it was 33.6 µM (inactive). Further, the GI50 in experiment [8] is 18.6 µM (inactive); in [9], 16.8 µM (inactive); in [10] it was 26.1 µM (inactive); in experiment [11], 21.2 µM (inactive); in [12], 16.9 µM (inactive); in [13] it was 26.3 µM (inactive). For the same compound, the GI50 was 20.7 µM (inactive) in experiment [14]; 22.9 µM (inactive) in [15]; 22.9 µM (inactive) in [16]; 19.7 µM (inactive) in experiment [17]; 21.5 µM (inactive) in experiment [20]; 19.4 µM (inactive) in [18]. In experiment [19], the GI50 was 19.6 µM (inactive).

Regarding `CN(Cc1cnc2c(N)nc(N)nc2n1)c1ccc(Cl)cc1`, the GI50 in experiment [2] was 31.7 µM (inactive); in [3] it was > 100 µM (inactive); in [4], > 100 µM (inactive); in experiment [7] it was 33.9 µM (inactive); in experiment [8], 13.7 µM (inactive); in [9], > 100 µM (inactive). For the same compound, the GI50 in experiment [10] is 73.8 µM (inactive); in experiment [11] it was 95.5 µM (inactive); in [12], > 100 µM (inactive); in [13], 1.91 µM (inactive); in experiment [15], 72.1 µM (inactive); in [16] it was 24.3 µM (inactive). Further, the values for the GI50 in experiment [20], in [18] and in experiment [19] were 29 µM (inactive), > 100 µM (inactive) and 78.5 µM (inactive), respectively.

In the case of `Nc1cccc(C#Cc2cccc(C#Cc3cccc(N)n3)n2)n1`, the GI50 is 55.6 µM (inactive) in experiment [1]; > 100 µM (inactive) in experiment [2]; 5.85 µM (inactive) in experiment [3]; > 100 µM (inactive) in experiment [4]; > 100 µM (inactive) in [5]; > 100 µM (inactive) in experiment [7]. In addition, the GI50 in [8] was 69.5 µM (inactive); in experiment [9] it was > 100 µM (inactive); in [10] it was > 100 µM (inactive); in [11] it was > 100 µM (inactive); in experiment [12], > 100 µM (inactive); in experiment [13] it was > 100 µM (inactive). For the same compound, the GI50 in experiment [14] was > 100 µM (inactive); in [15] it was 66.7 µM (inactive); in [16], 39.9 µM (inactive); in experiment [20], > 100 µM (inactive); in experiment [18] it was 47.4 µM (inactive); in experiment [19] it was > 100 µM (inactive).

Turning to `COc1cc(/C=C2\C[C@H]3[C@@H]4CC=C5C[C@@H](O)CC[C@]5(C)[C@H]4CC[C@]3(C)[C@H]2O)cc(OC)c1OC`, the GI50 in experiment [1] is 10.8 µM (inactive); in [2] it was 20.9 µM (inactive); in [4], 18.3 µM (inactive); in experiment [5] it was 8.05 µM (inactive); in experiment [6], 11.1 µM (inactive); in [7], 19.9 µM (inactive). The GI50 in [8] was 27.8 µM (inactive); in [9] it was 10.1 µM (inactive); in experiment [10], 20.7 µM (inactive); in [11], 8.34 µM (inactive); in [12] it was 11.4 µM (inactive); in experiment [13] it was 11 µM (inactive). For the same compound, the GI50 was 7.45 µM (inactive) in experiment [14]; 4.84 µM (inactive) in experiment [15]; 14.3 µM (inactive) in [16]; 25.2 µM (inactive) in [17]; 12.7 µM (inactive) in experiment [20]; 6.28 µM (inactive) in experiment [18]. In addition, the GI50 in experiment [19] was 14.8 µM (inactive).

For the compound `Cc1noc(/N=C2\C=C(O)C(=O)c3ccccc32)c1C`, the GI50 was 21.2 µM (inactive) in experiment [1]; 29.2 µM (inactive) in experiment [2]; 11.4 µM (inactive) in experiment [4]; 1.69 µM (inactive) in experiment [5]; 17.6 µM (inactive) in experiment [6]; 2.24 µM (inactive) in experiment [7]. The GI50 in experiment [8] was 10 µM (inactive); in [9], 0.254 µM (active); in experiment [10] it was 0.656 µM (active); in experiment [11], 0.495 µM (active); in experiment [12], 11.6 µM (inactive); in experiment [13] it was 23.8 µM (inactive). Further, the GI50 was 19.5 µM (inactive) in experiment [14]; 11.1 µM (inactive) in experiment [15]; 1.04 µM (active) in experiment [16]; 58.1 µM (inactive) in [17]; 0.251 µM (active) in [20]; 0.676 µM (active) in experiment [18]. The GI50 in [19] was 4.19 µM (inactive).

For the compound `COc1cc([N+](=O)[O-])c(S(=O)(=O)O)cc1N`, the GI50 in experiment [1], in experiment [2], in experiment [3], in [4], in [5] and in [6] was > 100 µM (inactive) throughout. For the same compound, the GI50 in [7], in experiment [8], in experiment [9], in experiment [10], in experiment [11] and in experiment [12] was > 100 µM (inactive) each time. Further, the GI50 in experiment [13], in [14], in experiment [16], in experiment [17], in experiment [20] and in [18] was > 100 µM (inactive) each time. In addition, in experiment [19], the GI50 was > 100 µM (inactive).
